Experiments:
platelets [1] = settings: subject D, blood collected 6 hours after oral 100 mg clopidogrel, 6 μl of 100 μM ADP in about 600 μl blood, 20 μl/min
Protocol: Two transparent substrates, that is, the first substrate 100 shown in FIG. 1(A) and the second substrate 110 shown in FIG. 1(B) (injection-molded products manufactured by Richell Corporation) were prepared. The side of the first substrate 100 wherein a groove corresponding to a capillary 101 opens and the side of the second substrate 110 having a platelet-adhesive surface 106 were bonded together such that these face to each other using a silane coupling agent and thermocompression bonding, to provide the microchip 1 shown in FIG. 1(C). In the first substrate 100, the length, depth and width of the channel (capillary) 101 were 20 mm, 50 μm and 2 mm, respectively. In terms of the channel dividing section 102, dividing walls 103 each having a length of 1.5 mm, width of 50 μm and height of 50 μm were placed at equal intervals of 50 μm, and this part was used as the channel dividing section. In the second substrate, each of the holes corresponding to the inlet and the outlet was a penetrating hole having a circular cross section and an inner diameter of 2 mm and a depth of 2 mm. At the position on the second substrate 110 which is overlapped with the channel dividing section 102 of the first substrate 100, about 10 μl of 3 mg/ml collagen type I (manufactured by Nitta Gelatin Inc.) was applied and dried under vacuum to provide a platelet-adhesive surface 106. […]

platelets [2] = experiment: Pressure increase in glass-surface microchip 2, citric acid-anticoagulated blood with ADP (Examples 8 to 10); format: ex vivo
Excerpt: The first substrate 200 shown in FIG. 3A and the second substrate 210 shown in FIG. 3B were laminated with and bonded to each other, to provide the microchip 2 shown in FIG. 3C. In terms of the substrate 200, a substrate made of PDMS (Fluidware) was used, and the depth of all the channels was 120 μm; the channel width was 1 mm; the length of the comb was 1 mm; the width of the comb was 50 μm; and the groove width was 50 μm. In terms of the substrate 210, a slide glass was used, and penetrating holes corresponding to the inlet and the outlet were provided as in the substrate 110, but, unlike the substrate 110, collagen was not applied since the glass plays a role as a platelet-adhesive surface. […] The mineral oil was injected from the pump 209 into the microchip 2 at a flow rate of 20 μl/min., and the inflow pressure of the mineral oil was measured by a pressure sensor which is not shown. Pressure changes were measured by carrying out an experiment which was the same as that in Example 8 except that ADP (manufactured by Wako Pure Chemical Industries, Ltd.) was further added to the blood anticoagulated with citric acid in the reservoir 207 to a final concentration of […]. Pressure changes were measured by carrying out an experiment which was the same as that in Example 9 except that blood collected 3 hours after dosing with 75 mg clopidogrel (Sanofi-aventis) was used.

platelets [3] = experiment: Pressure increase in collagen-coated microchip 1, citric acid-treated blood with arachidonic acid or collagen (Examples 16 to 18); format: ex vivo; settings: subject G
Protocol: (§1) In the first substrate 100, the length, depth and width of the channel (capillary) 101 were 20 mm, 50 μm and 2 mm, respectively.
The experiments a to f in Example 16 were carried out for the subject G 6 hours after dosing with 100 mg of aspirin.
Using blood of the subject G collected 6 hours after dosing with 100 mg of aspirin, experiments were carried out in the same manner as in Examples 16d to f except that the collagen to be added was increased to 12 μl or 18 μl.

platelets [4] = experiment: Camera images of platelet adherence in collagen-coated microchip 1 (Example 7); format: cell-based; settings: ADP 0.025, 0.05, 0.1 μM in citric acid-treated blood, 8 μl/min, image after 1 minute
Protocol: as §1
A pump 109 was connected to the reservoir 107 via a tube, and the pressure exerted on the pump was measured with a pressure sensor which is not shown. In the reservoir 107, a cylindrical stirring bar 108 having a diameter of 2 mm and a length of 5 mm, which was prepared by coating an iron cylinder with PMEA, was contained. The stirring bar 108 was set such that it can be rotated at 60 to 180 rpm by the magnetic force of a stirrer 113 placed under the heater 115 which was heated to 37° C. An outlet duct 112 was connected to the outlet such that the blood after the analysis can be discharged. A camera 111 to which an image analyzer 114 was connected was placed above the channel dividing section 102 of the microchip 1, thereby allowing observation of the state of platelet activation in the channel dividing section 102.
An experiment was carried out using the microchip 1 and the system A in Example 1 for diagnosis by images. The pump 109 was filled with mineral oil, and the reservoir 107 was filled with blood anticoagulated with citric acid. The mineral oil was sent to the reservoir 107 using the pump 109 at a flow rate of 8 μl/min. to allow the blood to flow into the microchip 1. […]

platelets [5] = experiment: Pressure increase in collagen-coated microchip 1, hirudin-anticoagulated blood with agent added (Examples 19 to 22); format: cell-based; settings: flow rate 7 μl/min, ReoPro 0.4 or 0.8 μg/ml
Protocol: as §1
(a) Blood was collected from the subject D using a hirudin blood collection tube (Multiplate Services GmbH), and about 600 μl of the blood anticoagulated with hirudin was filled in the reservoir 207. The pump 209 was filled with mineral oil and connected to the reservoir 207, whose tip was further connected to the inlet 104 in the microchip 1.

COC(=O)[C@H](c1ccccc1Cl)N1CCc2sccc2C1 [clopidogrel]
pressure increase after administration of clopidogrel (platelets [1]): pressure increase delayed
ADP-induced pressure increase after administration of clopidogrel (platelets [2]; blood collected 3 hours after dosing with 75 mg clopidogrel, ADP 2 nM, 20 μl/min): the increase was suppressed

CC(=O)Oc1ccccc1C(=O)O [aspirin]
pressure increase of blood collected after aspirin with increased collagen (platelets [3]; 6 hours after 100 mg aspirin, collagen increased to 12 μl or 18 μl, 20 μl/min (FIG. 19)): can also be made to cause pressure increase by increasing the collagen to be added
anti-platelet effect of aspirin by pressure increase (platelets [3]; 6 hours after dosing with 100 mg aspirin, arachidonic acid or collagen added, 20, 10, 5 μl/min): anti-platelet effect of aspirin can be analyzed

Nc1ncnc2c1ncn2[C@@H]1O[C@H](COP(=O)(O)OP(=O)(O)O)[C@@H](O)[C@H]1O [ADP, adenosine diphosphate]
amount of platelets adhered to the comb portion (platelets [4]): increase in the amount of platelets adhered to the comb portion, which occurred in an ADP concentration-dependent manner
pressure increase in the pump on addition of ADP (platelets [2]; blood anticoagulated with citric acid, ADP final concentration 2 nM, flow rate 20 μl/min): caused pressure increase

B1: ReoPro: ReoPro (Eli lilly), an antibody against the receptor GPIIb/IIIa on the platelet membrane (antibody, chains of the INN, looked up, V domains shown)
VH: EVQLQQSGTVLARPGASVKMSCEASGYTFTNYWMHWVKQRPGQGLEWIGAIYPGNSDTSYIQKFKGKAKLTAVTSTTSVYMELSSLTNEDSAVYYCTLYDGYYVFAYWGQGTLVTVSA
VL: EIVLTQSPVTLSVTPGDSVSLSCRASRDISNNLHWFQQTSHESPRLLIKYASQSMSGIPSRFSGSGSGTDFTLSINSVETEDFGMYFCQQTNSWPYTFGGGTKLEIK
modifications: Fab
notes: ReoPro (Eli lilly), an antibody against the receptor GPIIb/IIIa on the platelet membrane
anti-platelet effect under low shear stress (platelets [5]): rather strong anti-platelet effect

From patent publication US20160103142A1, “Blood-Platelet Test Method and Blood-Platelet Test Device” (FUJIMORI KOGYO CO., LTD., priority 2008, published 2016)
